Data reported in PubChem BioAssay (NCI).
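The compound was tested at five concentrations on cells cultured in 96-well plates, with a 48-hour exposure period. The concentration for full growth arrest is given as TGI.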

Key:
Test in all cases: DTP human tumour cell line panel, 48 h
[1] = tested on: HOP-62 NSCLC
[2] = tested on: SW-620 colon
[3] = tested on: HCC-2998 colon
[4] = tested on: KM12 colon
[5] = tested on: HL-60(TB) leukemia
[6] = tested on: SK-MEL-28 melanoma
[7] = tested on: COLO 205 colon
[8] = tested on: HCT-15 colon
[9] = tested on: MOLT-4 leukemia
[10] = tested on: LXFL 529 NSCLC
[11] = tested on: OVCAR-8 ovarian
[12] = tested on: 786-0 renal
[13] = tested on: U251 CNS
[14] = tested on: M14 melanoma
[15] = tested on: UACC-62 melanoma
[16] = tested on: SF-539 CNS
[17] = tested on: RPMI-8226 leukemia
[18] = tested on: LOX IMVI melanoma
[19] = tested on: HCT-116 colon
[20] = tested on: NCI-H460 lung
[21] = tested on: M19-MEL melanoma
[22] = tested on: ACHN renal
[23] = tested on: SK-MEL-2 melanoma
[24] = tested on: A549 NSCLC
[25] = tested on: SNB-19 CNS
[26] = tested on: UACC-257 melanoma
[27] = tested on: CAKI-1 renal
[28] = tested on: K-562 leukemia
[29] = tested on: OVCAR-3 ovarian
[30] = tested on: XF 498 CNS
[31] = tested on: NCI-H226 lung
[32] = tested on: NCI-H23 lung
[33] = tested on: HOP-18 NSCLC
[34] = tested on: MALME-3M melanoma
[35] = tested on: SK-OV-3 ovarian
[36] = tested on: SF-268 CNS
[37] = tested on: OVCAR-5 ovarian
[38] = tested on: SF-295 CNS
[39] = tested on: KM20L2 colon
[40] = tested on: RXF 393 renal
[41] = tested on: HT29 colon
[42] = tested on: SNB-78 CNS
[43] = tested on: EKVX NSCLC
[44] = tested on: CCRF-CEM leukemia
[45] = tested on: RXF-631 renal
[46] = tested on: IGROV1 ovarian
[47] = tested on: SR leukemia
[48] = tested on: OVCAR-4 ovarian
[49] = tested on: UO-31 renal
[50] = tested on: DMS 114 small cell lung
[51] = tested on: SN12C renal
[52] = tested on: TK-10 renal
[53] = tested on: DLD-1 colon
[54] = tested on: NCI-H522 lung
[55] = tested on: HOP-92 NSCLC
[56] = tested on: SNB-75 CNS
[57] = tested on: SK-MEL-5 melanoma
[58] = tested on: A498 renal

**Q.** What does the source list for `COc1ccc(/C=C/C(=O)c2sc(NC(=S)NC(=O)c3ccc(Cl)cc3)nc2C)cc1OC`?
**A.** TGI [1]: > 100 µM; TGI [2]: > 100 µM; TGI [3]: > 100 µM; TGI [4]: > 100 µM; TGI [5]: > 100 µM; TGI [6]: > 100 µM; TGI [7]: > 100 µM; TGI [8]: > 100 µM; TGI [9]: > 100 µM; TGI [10]: > 100 µM; TGI [11]: > 100 µM; TGI [12]: > 100 µM; TGI [13]: > 100 µM; TGI [14]: > 100 µM; TGI [15]: 39.5 µM; TGI [16]: > 100 µM; TGI [17]: 62 µM; TGI [18]: > 100 µM; TGI [19]: > 100 µM; TGI [20]: > 100 µM; TGI [21]: > 100 µM; TGI [22]: > 100 µM; TGI [23]: > 100 µM; TGI [24]: > 100 µM; TGI [25]: > 100 µM; TGI [26]: > 100 µM; TGI [27]: > 100 µM; TGI [28]: 96.8 µM; TGI [29]: > 100 µM; TGI [30]: > 100 µM; TGI [31]: > 100 µM; TGI [32]: > 100 µM; TGI [33]: > 100 µM; TGI [34]: > 100 µM; TGI [35]: > 100 µM; TGI [36]: > 100 µM; TGI [37]: > 100 µM; TGI [38]: > 100 µM; TGI [39]: > 100 µM; TGI [40]: > 100 µM; TGI [41]: > 100 µM; TGI [42]: > 100 µM; TGI [43]: > 100 µM; TGI [44]: 88.1 µM; TGI [45]: > 100 µM; TGI [46]: > 100 µM; TGI [47]: > 100 µM; TGI [48]: > 100 µM; TGI [49]: > 100 µM; TGI [50]: > 100 µM; TGI [51]: > 100 µM; TGI [52]: > 100 µM; TGI [53]: > 100 µM

**Q.** Which TGI [1] does the source give for `CCCCCCCCCCCCCC(=O)NCO` here?
**A.** > 100 µM

**Q.** What about the TGI [2] of the same compound?
**A.** > 100 µM

**Q.** What about the TGI [3] of the same compound?
**A.** > 100 µM

**Q.** And the TGI [4]?
**A.** > 100 µM

**Q.** What about the TGI [5] of the same compound?
**A.** > 100 µM

**Q.** What about the TGI [54] of the same compound?
**A.** > 100 µM

**Q.** What about the TGI [6] of the same compound?
**A.** > 100 µM

**Q.** What about the TGI [7] of the same compound?
**A.** > 100 µM

**Q.** And the TGI [8]?
**A.** > 100 µM

**Q.** What about the TGI [10] of the same compound?
**A.** > 100 µM

**Q.** And the TGI [11]?
**A.** > 100 µM

**Q.** What about the TGI [55] of the same compound?
**A.** > 100 µM

**Q.** What about the TGI [12] of the same compound?
**A.** > 100 µM

**Q.** What about the TGI [56] of the same compound?
**A.** > 100 µM

**Q.** What about the TGI [13] of the same compound?
**A.** > 100 µM

**Q.** What about the TGI [57] of the same compound?
**A.** > 100 µM

**Q.** And the TGI [14]?
**A.** > 100 µM

**Q.** What about the TGI [15] of the same compound?
**A.** > 100 µM

**Q.** What about the TGI [16] of the same compound?
**A.** > 100 µM

**Q.** And the TGI [17]?
**A.** > 100 µM

**Q.** What about the TGI [18] of the same compound?
**A.** > 100 µM

**Q.** And the TGI [19]?
**A.** > 100 µM

**Q.** And the TGI [20]?
**A.** > 100 µM

**Q.** What about the TGI [58] of the same compound?
**A.** > 100 µM

**Q.** What about the TGI [21] of the same compound?
**A.** > 100 µM

**Q.** What about the TGI [22] of the same compound?
**A.** > 100 µM

**Q.** And the TGI [23]?
**A.** > 100 µM

**Q.** And the TGI [24]?
**A.** > 100 µM

**Q.** And the TGI [25]?
**A.** > 100 µM

**Q.** What about the TGI [26] of the same compound?
**A.** > 100 µM

**Q.** And the TGI [29]?
**A.** > 100 µM

**Q.** What about the TGI [30] of the same compound?
**A.** > 100 µM

**Q.** And the TGI [31]?
**A.** > 100 µM

**Q.** What about the TGI [32] of the same compound?
**A.** > 100 µM

**Q.** What about the TGI [33] of the same compound?
**A.** > 100 µM

**Q.** What about the TGI [34] of the same compound?
**A.** > 100 µM

**Q.** What about the TGI [35] of the same compound?
**A.** > 100 µM

**Q.** What about the TGI [36] of the same compound?
**A.** > 100 µM

**Q.** And the TGI [37]?
**A.** > 100 µM

**Q.** And the TGI [38]?
**A.** > 100 µM

**Q.** What about the TGI [39] of the same compound?
**A.** > 100 µM

**Q.** What about the TGI [40] of the same compound?
**A.** > 100 µM

**Q.** And the TGI [41]?
**A.** > 100 µM

**Q.** And the TGI [42]?
**A.** > 100 µM

**Q.** And the TGI [43]?
**A.** > 100 µM

**Q.** What about the TGI [44] of the same compound?
**A.** > 100 µM

**Q.** And the TGI [45]?
**A.** > 100 µM

**Q.** What about the TGI [46] of the same compound?
**A.** > 100 µM

**Q.** What about the TGI [48] of the same compound?
**A.** > 100 µM

**Q.** What about the TGI [49] of the same compound?
**A.** > 100 µM

**Q.** And the TGI [50]?
**A.** > 100 µM

**Q.** What about the TGI [51] of the same compound?
**A.** > 100 µM

**Q.** And the TGI [52]?
**A.** > 100 µM

**Q.** What about the TGI [53] of the same compound?
**A.** > 100 µM

**Q.** For `N#CNC(=NCCO)NCCO`, which TGI [1] is on record?
**A.** > 100 µM

**Q.** And the TGI [2]?
**A.** > 100 µM

**Q.** And the TGI [3]?
**A.** > 100 µM

**Q.** And the TGI [4]?
**A.** > 100 µM

**Q.** What about the TGI [5] of the same compound?
**A.** > 100 µM

**Q.** And the TGI [54]?
**A.** > 100 µM

**Q.** What about the TGI [6] of the same compound?
**A.** > 100 µM

**Q.** What about the TGI [7] of the same compound?
**A.** > 100 µM

**Q.** And the TGI [8]?
**A.** > 100 µM

**Q.** And the TGI [9]?
**A.** > 100 µM

**Q.** And the TGI [10]?
**A.** > 100 µM

**Q.** And the TGI [11]?
**A.** > 100 µM

**Q.** And the TGI [56]?
**A.** > 100 µM

**Q.** What about the TGI [13] of the same compound?
**A.** > 100 µM

**Q.** What about the TGI [14] of the same compound?
**A.** > 100 µM

**Q.** What about the TGI [15] of the same compound?
**A.** > 100 µM

**Q.** What about the TGI [16] of the same compound?
**A.** > 100 µM

**Q.** What about the TGI [17] of the same compound?
**A.** > 100 µM

**Q.** What about the TGI [18] of the same compound?
**A.** > 100 µM

**Q.** What about the TGI [19] of the same compound?
**A.** > 100 µM

**Q.** What about the TGI [20] of the same compound?
**A.** > 100 µM

**Q.** What about the TGI [58] of the same compound?
**A.** > 100 µM

**Q.** And the TGI [21]?
**A.** > 100 µM

**Q.** What about the TGI [22] of the same compound?
**A.** > 100 µM

**Q.** What about the TGI [23] of the same compound?
**A.** > 100 µM

**Q.** And the TGI [24]?
**A.** > 100 µM

**Q.** What about the TGI [25] of the same compound?
**A.** > 100 µM

**Q.** And the TGI [26]?
**A.** > 100 µM

**Q.** What about the TGI [27] of the same compound?
**A.** > 100 µM

**Q.** What about the TGI [29] of the same compound?
**A.** > 100 µM

**Q.** And the TGI [30]?
**A.** > 100 µM

**Q.** And the TGI [31]?
**A.** > 100 µM

**Q.** And the TGI [33]?
**A.** > 100 µM

**Q.** What about the TGI [34] of the same compound?
**A.** > 100 µM

**Q.** And the TGI [35]?
**A.** > 100 µM

**Q.** And the TGI [36]?
**A.** > 100 µM

**Q.** And the TGI [37]?
**A.** > 100 µM

**Q.** And the TGI [38]?
**A.** > 100 µM

**Q.** What about the TGI [39] of the same compound?
**A.** > 100 µM

**Q.** What about the TGI [41] of the same compound?
**A.** > 100 µM

**Q.** What about the TGI [42] of the same compound?
**A.** > 100 µM

**Q.** What about the TGI [43] of the same compound?
**A.** > 100 µM

**Q.** What about the TGI [44] of the same compound?
**A.** > 100 µM

**Q.** What about the TGI [45] of the same compound?
**A.** > 100 µM

**Q.** And the TGI [46]?
**A.** > 100 µM

**Q.** And the TGI [47]?
**A.** > 100 µM

**Q.** And the TGI [48]?
**A.** > 100 µM

**Q.** What about the TGI [49] of the same compound?
**A.** > 100 µM

**Q.** And the TGI [50]?
**A.** > 100 µM

**Q.** What about the TGI [51] of the same compound?
**A.** > 100 µM

**Q.** And the TGI [53]?
**A.** > 100 µM
